Here are results for one substance from patent US10272096B2, “Methods and systems of treating wounds” (priority 2013, dated 2019).

The test system of experiment [1] is Erk1/2. Put plainly: Western blot analysis of phospho-Erk1/2 in U2OS cells. In kind it is cell-based, human. Here is the method:
Cells were lysed and harvested 10 min after LLLT treatment in Laemmli buffer heated to 100° C. (BioRad, Hercules, Calif.), and lysates were sonicated and resolved on SDS-PAGE gels. The proteins were transferred to a nitrocellulose membrane (GE Healthcare Life Sciences, Pittsburgh) and blocked for 1 h with Pierce Protein-Free Blocking buffer (Thermo Scientific, Rockford, Ill.). They were incubated overnight with antibodies for phospho-ERK1/2(Thr202/Tyr203) at 1:10,000 in TBS/5% BSA (Cell Signaling Technology). Membranes were then incubated with an anti-rabbit-HRP antibody at 1:2000 for 1 h and developed using a luminol-based chemiluminescent substrate.
A general note: In western blotting, separated proteins are transferred to a membrane and probed.

In experiment [2] the test system is U2OS cells. In kind it is cell-based, human.
Method: U2OS human osteosarcoma cells were obtained from the American Type Tissue Culture Collection (ATCC, Rockville, Md.). Cells were grown in T-75 flasks (Corning, Fisher, Pittsburgh, Pa.) in a 37° C., 5% CO2/95% air incubator using Dulbecco's Modified Eagle's Medium (DMEM) and supplemented with 10% fetal bovine serum (Mediatach, Manassas, Va.). Cells were trypsinized with TrypLE (Invitrogen Life Technologies, Carsbad, Calif.), seeded into 6-well or 96-well plates (Corning, Fisher, Pittsburgh, Pa.) and grown to confluence.
Cells were exposed to LLLT for 30 min and 1 h later received a single treatment of 5 μM NO-Cbi.
The scratch wound closure assay has been previously described (see Spitler et al., Nitrosyl-cobinamide (NO-Cbi), a new nitric oxide donor, improves wound healing through cGMP/cGMP-dependent protein kinase, Cell Signal 2013, 25(12):2374-2382). Briefly 600-700 μm wide single line scratches were mechanically generated in a cell monolayer by a 200 μl plastic tip across the length of the well. Cells from both edges of the wound migrated into the open area, which was measured at 24 h. The change in area was quantified using a custom Mat Lab script. The wound closure rate was determined by plotting changes in the wound area as a function of time.
For experiment [3], the system named is lung epithelial cells, primary human lung fibroblasts, cancer cell model. Put plainly: In vitro wound healing in several different cell systems. In kind it is cell-based. From the text: . The inventors established this optimal dose range in order to provide a reasonable dose for actual treatment of airway injury. Mechanistically, the inventors determined that improved wound healing was from increased cell migration and not cell proliferation (division). […]

The test system of experiment [4] is A-549 cells. The experiment in a line: Mechanical scratch wound assay in A-549 cell monolayer. In kind it is cell-based. Here is the method:
(A) Mechanical scratch wounds were generated in a monolayer of A-549 cells, and 30 hours later, the area of the wound was evaluated by custom computer-based software. At 0, 4, 9, and 24 hour post wounding, cells received fresh medium with 5 uM of NO-Cbl, Deta-NONOate, sodium nitroprusside (SNP), or fresh medium alone. (B) The normalized average wound area was determined by dividing the final wound area by the initial wound area and averaging replicates. Data represent the mean+/−SEM of at least 3 separate experiments with an n=12 in each experiment.

For the substance nitrosyl-cobinamide [NO-Cbi], in experiment [1], the “Erk1/2 activation (phosphorylation)” value is listed as “increased Erk1/2 activation” and the “Erk1/2 activation, combination with LLLT” value is recorded as “same degree of Erk1/2 activation as NO-Cbi alone”. Moreover, in experiment [2], the “wound healing (normalized wound area at 24 h)” value is on record as “enhance wound healing” and the “wound healing, combination with LLLT” value is listed as “markedly enhanced wound healing compared to either treatment alone”. Also, in experiment [3], the “in vitro wound healing” value is given as “improved in vitro wound healing”. Also, in experiment [4], the “effectiveness on a molar basis compared with other NO donors” value was “more effective than two other NO donors”; the “wound healing and migration (normalized wound area)” value is “increases wound healing and migration”.
